Experimental data: US20240279283A1, “CYCLIC PEPTIDE ANTIBIOTICS” (priority 2021, published 2024)
Bridge positions count the residues as written; N and C are the ends. Square brackets hold non-standard residues; d marks the D form. Peptide text beside a SMILES is read from it. NMePhe(4-Cl) = CN[C@@H](Cc1ccc(Cl)cc1)C(=O)O; Bip = N[C@@H](Cc1ccc(-c2ccccc2)cc1)C(=O)O; Gly(Nα-CH2CH2CONH2) = NC(=O)CCNCC(=O)O; 1Nal = N[C@@H](Cc1cccc2ccccc12)C(=O)O; 2Nal = N[C@@H](Cc1ccc2ccccc2c1)C(=O)O; His(π-Me) = Cn1cncc1C[C@H](N)C(=O)O; NMeY = CN[C@@H](Cc1ccc(O)cc1)C(=O)O; NMeF = CN[C@@H](Cc1ccccc1)C(=O)O; Abu = CC[C@H](N)C(=O)O

Assays:
Type in all cases: cell-based
Conditions in all cases: LB broth, 5×10^5 CFU/ml, 37° C., 18 hours, scored by eye
E. coli 25922 IMP = test: Minimum Inhibitory Concentration (MIC) determination, E. coli 25922 IMP
Method: (§1) MICs were determined by performing two-fold serial dilutions of peptides in LB broth to a final volume of 0.1 ml in round-bottom 96-well assay plates (Corning Life Sciences No 3788). Peptides were initially resuspended in 100% DMSO to 10 mM and subsequently diluted in LB medium to the appropriate concentration. Each well was inoculated with 5×10^5 CFU/ml of the screening stain and incubated at 37° C. without agitation for 18 hours. Plates were scored by eye, and the lowest compound concentration preventing visible growth was determined to be the MIC.

E. coli 25922 = test: Minimum Inhibitory Concentration (MIC) determination, E. coli 25922; design: unit not given here
Method: as §1

E. coli BW25113 = test: Minimum Inhibitory Concentration (MIC) determination, E. coli BW25113; design: unit not given here
Method: as §1

K. pneumoniae ATCC43816 = test: Minimum Inhibitory Concentration (MIC) determination, K. pneumoniae ATCC43816; design: unit not given here
Method: as §1

E. cloacae ATCC222 = test: Minimum Inhibitory Concentration (MIC) determination, E. cloacae ATCC222; design: unit not given here
Method: as §1

Row | Compound | MIC E. coli 25922 IMP WUXI::MIC (E. coli 25922 IMP) | MIC E. coli 25922 WUXI::MIC (E. coli 25922) | MIC E. coli BW25113 WUXI::MIC (E. coli BW25113) | MIC K. pneumoniae ATCC43816 Wuxi::MIC (K. pneumoniae ATCC43816) | MIC E. cloacae ATCC222 WUXI::MIC (E. cloacae ATCC222)
1 | CC[C@H](C)[C@@H]1NC(=O)[C@H]([C@@H](C)O)NC(=O)[C@H](Cc2cncn2C)NC(=O)[C@H](Cc2ccccc2)NC(=O)CSC[C@@H](C(=O)NCC(N)=O)NC(=O)[C@H](Cc2ccc(O)cc2)NC(=O)[C@H](Cc2c[nH]c3ccccc23)NC(=O)[C@H](Cc2ccc(O)cc2)NC(=O)[C@H](CCCCN)NC(=O)[C@H](Cc2ccccc2)NC(=O)C(C)(C)NC(=O)[C@H](CO)NC(=O)[C@H](CCCCN)NC(=O)[C@H](CCCNC(=N)N)NC1=O (racemic) [Compound 61] | 1 | 16 | 16 | – | –
2 | CC(C)[C@@H]1NC(=O)[C@H](Cc2ccccc2)NC(=O)CSC[C@@H](C(=O)NCC(N)=O)NC(=O)[C@H](Cc2cnc[nH]2)NC(=O)[C@H](CCCNC(=N)N)NC(=O)[C@H](Cc2cnc[nH]2)NC(=O)[C@H](Cc2ccccc2)N(C)C(=O)[C@H](CCCNC(=N)N)NC(=O)[C@H](CO)NC(=O)CNC(=O)[C@H](Cc2cnc[nH]2)NC(=O)[C@H](Cc2c[nH]c3ccccc23)NC1=O (racemic) [Compound 1, rac-(3R,6S,9S,12S,15S,18S,21S,27S,30S, 33S,36S)-N-(2-amino-2-oxo-ethyl)-15,36-dibenzyl-9,18-bis(3-guanidinopropyl)-21-(hydroxymethyl)-6,12,27-tris(1H-imidazol-5-ylmethyl)-30-(1H-indol-3-ylmethyl)-33-isopropyl-16-methyl-5,8,11,14,17,20,23,26,29,32,35,38-dodecaoxo-1-thia-4,7,10,13,16,19,22,25,28,31,34,37-dodecazacyclononatriacontane-3-carboxamide] | 0.031 | 50 | 100 | 50 | 6.3
3 | CC[C@@H]1NC(=O)[C@H](Cc2ccccc2)NC(=O)CSC[C@@H](C(=O)NCC(N)=O)NC(=O)[C@H](Cc2cncn2C)NC(=O)[C@H](CCCNC(=N)N)NC(=O)[C@H](Cc2c[nH]cn2)NC(=O)[C@H](Cc2ccc(O)cc2)N(C)C(=O)[C@H](CCCNC(=N)N)NC(=O)[C@H](CO)NC(=O)CN(CCC(N)=O)C(=O)[C@H](Cc2c[nH]cn2)NC(=O)[C@H](Cc2cccc3ccccc23)NC1=O [Compound 30] ({CH2CO}-F[Abu][1Nal]H[Gly(Nα-CH2CH2CONH2)]SR[NMeY]HR[His(π-Me)]CG-NH2; thioether N-12) | 0.016 | 25 | 50 | 100 | 1.6
4 | CC(C)[C@@H]1NC(=O)[C@H](Cc2ccccc2)NC(=O)CSC[C@@H](C(=O)NCC(N)=O)NC(=O)[C@H](Cc2cncn2C)NC(=O)[C@H](CCCNC(=N)N)NC(=O)[C@H](Cc2cnc[nH]2)NC(=O)[C@H](Cc2ccc(O)cc2)N(C)C(=O)[C@H](CCCNC(=N)N)NC(=O)[C@H](CO)NC(=O)CNC(=O)[C@H](Cc2cnc[nH]2)NC(=O)[C@H](Cc2c[nH]c3ccccc23)NC1=O (racemic) [Compound 14] | 0.0119 | 25 | 37.5 | 25 | 1.19
5 | CC[C@@H]1NC(=O)[C@H](Cc2ccccc2)NC(=O)CSC[C@@H](C(=O)NCC(N)=O)NC(=O)[C@H](Cc2cncn2C)NC(=O)[C@H](CCCNC(=N)N)NC(=O)[C@H](Cc2c[nH]cn2)NC(=O)[C@H](Cc2ccc(O)cc2)N(C)C(=O)[C@H](CCCNC(=N)N)NC(=O)[C@H](CO)NC(=O)CNC(=O)[C@H](Cc2c[nH]cn2)NC(=O)[C@H](Cc2ccc(-c3ccccc3)cc2)NC1=O [Compound 24] ({CH2CO}-F[Abu][Bip]HGSR[NMeY]HR[His(π-Me)]CG-NH2; thioether N-12) | 0.016 | 13 | – | – | –
6 | CC[C@H](C)[C@@H]1NC(=O)[C@H]([C@@H](C)O)NC(=O)[C@H](Cc2cncn2C)NC(=O)[C@H](Cc2ccccc2)NC(=O)CSC[C@@H](C(=O)NCC(N)=O)NC(=O)[C@H](Cc2ccc(O)cc2)NC(=O)[C@H](Cc2ccc(Cl)cc2)NC(=O)[C@H](Cc2ccc(O)cc2)NC(=O)[C@H](CCCNC(=N)N)NC(=O)[C@H](Cc2ccccc2)NC(=O)C(C)(C)NC(=O)[C@H](CO)NC(=O)[C@H](CCCCN)NC(=O)[C@H](CCCNC(=N)N)NC1=O (mixture of isomers) [Compound 60] | 1 | 16 | 16 | – | –
7 | CC[C@@H]1NC(=O)[C@H](Cc2ccccc2)NC(=O)CSC[C@@H](C(=O)NCC(N)=O)NC(=O)[C@H](Cc2cncn2C)NC(=O)[C@H](CCCNC(=N)N)NC(=O)[C@H](Cc2c[nH]cn2)NC(=O)[C@H](Cc2ccc(Cl)cc2)N(C)C(=O)[C@H](CCCNC(=N)N)NC(=O)[C@H](CO)NC(=O)CNC(=O)[C@H](Cc2c[nH]cn2)NC(=O)[C@H](Cc2cccc3ccccc23)NC1=O [Compound 33] ({CH2CO}-F[Abu][1Nal]HGSR[NMePhe(4-Cl)]HR[His(π-Me)]CG-NH2; thioether N-12) | 0.0005 | 13 | 25 | 25 | 1.6
8 | CC[C@@H]1NC(=O)[C@H](Cc2ccccc2)NC(=O)CSC[C@@H](C(=O)NCC(N)=O)NC(=O)[C@H](Cc2cncn2C)NC(=O)[C@H](CCCNC(=N)N)NC(=O)[C@H](Cc2c[nH]cn2)NC(=O)[C@H](Cc2ccc(O)cc2)NC(=O)[C@H](CCCNC(=N)N)NC(=O)[C@H](CO)NC(=O)CNC(=O)[C@H](Cc2c[nH]cn2)NC(=O)[C@H](Cc2cccc3ccccc23)NC1=O [Compound 32, (3R,6S,9S,12S,15S,18S,21S,27S,30S, 33S,36S)-N-(2-amino-2-oxo-ethyl)-36-benzyl-33-ethyl-9,18-bis(3-guanidinopropyl)-21-(hydroxymethyl)-15-[(4-hydroxyphenyl)methyl]-12,27-bis(1H-imidazol-4-ylmethyl)-6-[(3-methylimidazol-4-yl)methyl]-30-(1-naphthylmethyl)-5,8,11,14,17,20,23,26,29,32,35,38-dodecaoxo-1-thia-4,7,10,13,16,19,22,25,28,31,34,37-dodecazacyclononatriacontane-3-carboxamide] ({CH2CO}-F[Abu][1Nal]HGSRYHR[His(π-Me)]CG-NH2; thioether N-12) | 0.031 | 25 | – | – | –
9 | CC[C@@H]1NC(=O)[C@H](Cc2ccccc2)N(C)C(=O)CSC[C@@H](C(=O)NCC(N)=O)NC(=O)[C@H](Cc2cncn2C)NC(=O)[C@H](CCCNC(=N)N)NC(=O)[C@H](Cc2c[nH]cn2)NC(=O)[C@H](Cc2ccc(O)cc2)N(C)C(=O)[C@H](CCCNC(=N)N)NC(=O)[C@H](CO)NC(=O)CNC(=O)[C@H](Cc2c[nH]cn2)NC(=O)[C@H](Cc2cccc3ccccc23)NC1=O [Compound 23] ({CH2CO}-[NMeF][Abu][1Nal]HGSR[NMeY]HR[His(π-Me)]CG-NH2; thioether N-12) | 0.016 | 25 | – | – | –
10 | CC[C@H](C)[C@@H]1NC(=O)[C@H]([C@@H](C)O)NC(=O)[C@H](Cc2cncn2C)NC(=O)[C@H](Cc2ccccc2)NC(=O)CSC[C@@H](C(=O)NCC(N)=O)NC(=O)[C@H](Cc2ccc(O)cc2)NC(=O)[C@H](Cc2c[nH]c3ccccc23)NC(=O)[C@H](Cc2ccc(O)cc2)NC(=O)[C@H](CCCNC(=N)N)NC(=O)[C@H](Cc2ccccc2)NC(=O)C(C)(C)NC(=O)[C@H](CO)NC(=O)[C@H](CCCCN)NC(=O)[C@H](CCCNC(=N)N)NC1=O (racemic) [Compound 59] | 1 | 8 | 16 | – | –
11 | CC[C@@H]1NC(=O)[C@H](Cc2ccccc2)NC(=O)CSC[C@@H](C(=O)NCC(N)=O)NC(=O)[C@H](Cc2cncn2C)NC(=O)[C@H](CCCNC(=N)N)NC(=O)[C@H](Cc2c[nH]cn2)NC(=O)[C@H](Cc2ccc(O)cc2)N(C)C(=O)[C@H](CCCNC(=N)N)NC(=O)[C@H](CO)NC(=O)CNC(=O)[C@H](Cc2c[nH]cn2)NC(=O)[C@H](Cc2ccc3ccccc3c2)NC1=O [Compound 25] ({CH2CO}-F[Abu][2Nal]HGSR[NMeY]HR[His(π-Me)]CG-NH2; thioether N-12) | 0.031 | 25 | – | – | –
12 | CC[C@@H]1NC(=O)[C@H](Cc2ccccc2)NC(=O)CSC[C@@H](C(=O)NCC(N)=O)NC(=O)[C@H](Cc2cncn2C)NC(=O)[C@H](CCCNC(=N)N)NC(=O)[C@H](Cc2c[nH]cn2)NC(=O)[C@H](Cc2ccc(O)cc2)N(C)C(=O)[C@H](C)NC(=O)[C@H](CO)NC(=O)CNC(=O)[C@H](Cc2c[nH]cn2)NC(=O)[C@H](Cc2cccc3ccccc23)NC1=O [Compound 36] ({CH2CO}-F[Abu][1Nal]HGSA[NMeY]HR[His(π-Me)]CG-NH2; thioether N-12) | 100 | 100 | – | – | –
13 | CC[C@@H]1NC(=O)[C@H](Cc2ccccc2)NC(=O)CSC[C@@H](C(=O)NCC(N)=O)NC(=O)[C@H](Cc2cncn2C)NC(=O)[C@H](CC)NC(=O)[C@H](Cc2c[nH]cn2)NC(=O)[C@H](Cc2ccc(O)cc2)N(C)C(=O)[C@H](CCCNC(=N)N)NC(=O)[C@H](CO)NC(=O)CNC(=O)[C@H](Cc2c[nH]cn2)NC(=O)[C@H](Cc2cccc3ccccc23)NC1=O (stereo in doubt) [Compound 41] | – | >100 | – | – | –
